Values of other authors as cited in patent publication US20240209370A1, “METHODS OF MODULATING ALK” (SOCIETE DES PRODUITS NESTLE S.A., priority 2017, published 2024).

Target: ALK (Homo sapiens, UniProt Q9UM73)
Details: effect on ALK activity or expression as listed from ctdbase, Medline or cited patents

Sequence of ALK (Q9UM73 19-1620): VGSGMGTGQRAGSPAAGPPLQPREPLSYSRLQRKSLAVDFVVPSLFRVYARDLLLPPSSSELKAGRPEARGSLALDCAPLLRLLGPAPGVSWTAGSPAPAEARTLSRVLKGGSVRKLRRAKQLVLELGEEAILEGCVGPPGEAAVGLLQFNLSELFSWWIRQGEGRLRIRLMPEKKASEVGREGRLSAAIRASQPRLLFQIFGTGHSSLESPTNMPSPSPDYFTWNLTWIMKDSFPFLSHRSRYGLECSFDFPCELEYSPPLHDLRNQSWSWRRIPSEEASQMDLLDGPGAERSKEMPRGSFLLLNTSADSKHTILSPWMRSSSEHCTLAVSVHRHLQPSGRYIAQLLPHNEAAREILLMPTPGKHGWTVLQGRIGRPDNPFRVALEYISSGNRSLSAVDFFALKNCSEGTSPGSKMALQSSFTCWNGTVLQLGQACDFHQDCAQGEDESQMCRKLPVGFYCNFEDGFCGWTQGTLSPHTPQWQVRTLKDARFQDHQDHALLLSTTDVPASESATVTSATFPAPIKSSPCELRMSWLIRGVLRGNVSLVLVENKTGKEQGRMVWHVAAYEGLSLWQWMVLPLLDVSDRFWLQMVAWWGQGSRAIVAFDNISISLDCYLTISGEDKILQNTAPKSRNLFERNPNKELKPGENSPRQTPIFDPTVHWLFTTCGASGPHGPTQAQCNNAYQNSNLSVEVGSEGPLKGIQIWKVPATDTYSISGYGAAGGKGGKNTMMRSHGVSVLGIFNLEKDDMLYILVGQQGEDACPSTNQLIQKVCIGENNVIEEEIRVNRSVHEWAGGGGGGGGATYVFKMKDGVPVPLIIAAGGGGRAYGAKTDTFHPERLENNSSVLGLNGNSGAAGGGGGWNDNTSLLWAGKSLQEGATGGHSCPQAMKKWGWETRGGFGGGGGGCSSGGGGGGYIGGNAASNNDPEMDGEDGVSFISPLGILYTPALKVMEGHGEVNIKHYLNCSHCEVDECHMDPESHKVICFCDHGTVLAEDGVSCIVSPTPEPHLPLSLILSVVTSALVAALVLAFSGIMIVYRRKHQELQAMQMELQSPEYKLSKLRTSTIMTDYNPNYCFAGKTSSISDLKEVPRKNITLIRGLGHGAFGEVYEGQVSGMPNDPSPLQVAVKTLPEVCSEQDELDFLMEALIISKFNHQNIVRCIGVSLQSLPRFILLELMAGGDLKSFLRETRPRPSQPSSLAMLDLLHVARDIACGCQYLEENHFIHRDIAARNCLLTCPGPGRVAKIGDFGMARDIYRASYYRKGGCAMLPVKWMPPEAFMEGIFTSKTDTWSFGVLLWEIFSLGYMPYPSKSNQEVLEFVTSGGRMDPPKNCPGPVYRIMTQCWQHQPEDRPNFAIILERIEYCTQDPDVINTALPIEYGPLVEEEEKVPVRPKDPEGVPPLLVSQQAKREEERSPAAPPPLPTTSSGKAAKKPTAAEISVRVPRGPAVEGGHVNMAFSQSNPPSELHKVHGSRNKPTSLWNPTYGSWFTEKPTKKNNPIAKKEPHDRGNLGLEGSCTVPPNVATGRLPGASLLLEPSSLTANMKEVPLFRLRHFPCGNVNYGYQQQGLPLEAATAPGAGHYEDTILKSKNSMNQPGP

Row | Compound | Interaction Actions
1 | CC(=O)N[C@@H](CS)C(=O)O [Acetylcysteine] | affects activity
2 | C[C@H](Cc1ccc(O)c(O)c1)[C@@H](C)Cc1ccc(O)c(O)c1 [Masoprocol] | decreases activity
3 | CC1=C(/C=C/C(C)=C/C=C/C(C)=C/C(=O)O)C(C)(C)CCC1 [Tretinoin] | decreases expression
4 | Cc1cc(Nc2ncc(Cl)c(Nc3ccccc3S(=O)(=O)C(C)C)n2)c(OC(C)C)cc1C1CCNCC1 [ceritinib] | inhibit
5 | Cc1cc(O)c2c(c1)C(=O)c1cc(O)cc(O)c1C2=O [emodin] | inhibit
6 | CO[C@H]1C[C@@H]2CC[C@@H](C)[C@@](O)(O2)C(=O)C(=O)N2CCCC[C@H]2C(=O)O[C@H]([C@H](C)C[C@@H]2CC[C@@H](OCCO)[C@H](OC)C2)CC(=O)[C@H](C)/C=C(\C)[C@@H](O)[C@@H](OC)C(=O)[C@H](C)C[C@H](C)/C=C/C=C/C=C/1C [everolimus] | inhibit
7 | COc1cc2c(Oc3ccc(NC(=O)C4(C(=O)Nc5ccc(F)cc5)CC4)cc3F)ccnc2cc1OCCCN1CCOCC1 [foretinib] | inhibit
8 | CO[C@H]1[C@@H](OC)C[C@H](C)[C@@H](OC)C2=CC(=O)C=C(NC(=O)/C(C)=C/C=C\[C@H](OC)[C@@H](OC(N)=O)/C(C)=C/[C@@H]1C)C2=O [herbimycin] | inhibit
9 | C[C@]12CCC(=O)C=C1CC[C@@H]1[C@@H]2[C@@H](O)C[C@@]2(C)[C@H]1CC[C@]2(O)C(=O)CO [hydrocortisone] | suppress
10 | CS(=O)(=O)CCNCc1ccc(-c2ccc3ncnc(Nc4ccc(OCc5cccc(F)c5)c(Cl)c4)c3c2)o1 [lapatinib] | inhibit
11 | c1cncnc1 [pyrimidine] | inhibit
12 | O=S(=O)(O)OC[C@H]1O[C@@](COS(=O)(=O)O)(O[C@H]2O[C@H](COS(=O)(=O)O)[C@@H](OS(=O)(=O)O)[C@H](OS(=O)(=O)O)[C@H]2OS(=O)(=O)O)[C@@H](OS(=O)(=O)O)[C@@H]1OS(=O)(=O)O [sucrose octasulfate] | inhibit
13 | COc1cc2nccc(Oc3ccc(NC(=O)Nc4cc(C)on4)c(Cl)c3)c2cc1OC [tivozanib] | inhibit
14 | C[C@H]1c2cccc(O)c2C(O)=C2C(=O)[C@]3(O)C(O)=C(C(N)=O)C(=O)[C@@H](N(C)C)[C@@H]3[C@@H](O)[C@@H]21 [vibramycin] | inhibit
15 | heparin | terminate
